# Patent US6706692B1, “6-deoxy erythromycin derivatives, method for preparing same and use as medicines” (Aventis Pharma S.A., priority 1998, dated 2004)
# What was measured:
# Experiment in all cases: Method of dilutions in liquid medium (M.I.C.)
# Format in all cases: cell-based
# Conditions in all cases: reading after 24 hours, 37° C.
# [1] = tested on: S. pneumoniae 030PW23c
# Experimental: (§1) A—Method of Dilutions in Liquid Medium A series of tubesis prepared in which the same quantity of nutritive sterile medium is distributed. Increasing quantities of the product to be studied are distributed into each tube, then each tube is sown with a bacterial strain. After incubation for twenty-four hours in a heating chamber at 37° C., the growth inhibition is evaluated by transillumination, which allows the minimal inhibitory concentrations (M.I.C.) to be determined, expressed in micrograms/cm^3. The following results were obtained with the product of the example: (reading after 24 hours)
# [2] = tested on: S. mitis 02MitGR16i
# Experimental: as §1
# [3] = tested on: S. pneumoniae 030GR20
# Experimental: as §1
# [4] = tested on: S. aureus 011UC4
# Experimental: as §1
# [5] = tested on: S. agalactiae 02B1HT1
# Experimental: as §1
# [6] = tested on: S. mitis 02MitCB1
# Experimental: as §1
# [7] = tested on: S. agalactiae 02B1SJ1c
# Experimental: as §1
# [8] = tested on: Streptococcus gr;G 02GOGR5
# Experimental: as §1
# [9] = tested on: E. faecalis 02D2UC1
# Experimental: as §1
# [10] = tested on: S. pneumoniae 030SJ5i
# Experimental: as §1
# [11] = tested on: S. pneumoniae 032UC1
# Experimental: as §1
# [12] = tested on: E. faecium 02D3HT1
# Experimental: as §1
# [13] = tested on: S. pneumoniae 030RO1i
# Experimental: as §1
substance,measurement,setting,value
"3-de[2,6-dideoxy-3-C-methyl-3-0-methyl-alpha-L-ribo-hexopyranosyl)-oxy]-3-oxo-12,11-[oxycarbonyl[[4-[4-(3-pyridinyl)-1H-imidazol-1-yl]-butyl]-imino]]-6,11,12-trideoxy-erythromycin [product of the example]",minimal inhibitory concentrations (M.I.C.),[1],0.300 micrograms/cm^3
same,minimal inhibitory concentrations (M.I.C.),[2],0.300 micrograms/cm^3
same,minimal inhibitory concentrations (M.I.C.),[3],0.600 micrograms/cm^3
same,minimal inhibitory concentrations (M.I.C.),[4],0.300 micrograms/cm^3
same,minimal inhibitory concentrations (M.I.C.),[5],<+0.02 micrograms/cm^3
same,minimal inhibitory concentrations (M.I.C.),[6],0.040 micrograms/cm^3
same,minimal inhibitory concentrations (M.I.C.),[7],2.500 micrograms/cm^3
same,minimal inhibitory concentrations (M.I.C.),[8],0.040 micrograms/cm^3
same,minimal inhibitory concentrations (M.I.C.),[9],0.080 micrograms/cm^3
same,minimal inhibitory concentrations (M.I.C.),[10],0.600 micrograms/cm^3
same,minimal inhibitory concentrations (M.I.C.),[11],<=0.02 micrograms/cm^3
same,minimal inhibitory concentrations (M.I.C.),[12],0.040 micrograms/cm^3
same,minimal inhibitory concentrations (M.I.C.),[13],0.600 micrograms/cm^3
